# Assays:
# [1] = biological target: T1, Human opioid (ORL1) (Homo sapiens, UniProt P41146); assay: Radioligand binding, human opioid ORL1 membranes, FlashPlate, [125I]-Nociceptin; settings: compound at 10 μM; [125I]-Nociceptin, FlashPlate
# T1 construct: purchased Perkin Elmer Biosignal
# How it was run: (§1)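 Cloned human receptor membranes were coated onto FlashPlate wells and incubated with radioligand and compound (added from a 0.5 mM DMSO daughter plate) for 1 hour at room temperature in the dark. Scintillation counting gave percent inhibition, with DMSO defining total and reference ligand defining non-specific binding.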
# [2] = biological target: T2, Human melanin-concentrating hormone (MCH1) (Homo sapiens, UniProt Q99705); assay: Radioligand binding, human melanin-concentrating hormone MCH1 membranes, FlashPlate, [125I]-S36057; settings: compound at 10 μM; [125I]-S36057, FlashPlate
# T2 construct: purchased Perkin Elmer Biosignal
# How it was run: as §1
# [3] = biological target: T3, Human μ-opioid (MOP) (Homo sapiens, UniProt P35372); assay: Radioligand binding, human μ-opioid (MOP) membranes, FlashPlate, [3H]-Naloxone; settings: compound at 10 μM; [3H]-Naloxone, FlashPlate
# T3 construct: purchased Perkin Elmer Biosignal
# How it was run: as §1
# [4] = biological target: T4, Human δ-opioid (DOP) (Homo sapiens, UniProt P41143); assay: Radioligand binding, human δ-opioid (DOP) membranes, FlashPlate, [3H]-Bremazocine; settings: compound at 10 μM; [3H]-Bremazocine, FlashPlate
# T4 construct: purchased Perkin Elmer Biosignal
# How it was run: as §1
# [5] = biological target: T5, Human neuropeptide Y (NPY-Y1) (Homo sapiens, UniProt P25929); assay: Radioligand binding, human neuropeptide Y NPY-Y1 membranes, FlashPlate, [125I]-PYY; settings: compound at 10 μM; [125I]-PYY, FlashPlate
# T5 construct: purchased Perkin Elmer Biosignal
# T5 sequence (P25929 1-384): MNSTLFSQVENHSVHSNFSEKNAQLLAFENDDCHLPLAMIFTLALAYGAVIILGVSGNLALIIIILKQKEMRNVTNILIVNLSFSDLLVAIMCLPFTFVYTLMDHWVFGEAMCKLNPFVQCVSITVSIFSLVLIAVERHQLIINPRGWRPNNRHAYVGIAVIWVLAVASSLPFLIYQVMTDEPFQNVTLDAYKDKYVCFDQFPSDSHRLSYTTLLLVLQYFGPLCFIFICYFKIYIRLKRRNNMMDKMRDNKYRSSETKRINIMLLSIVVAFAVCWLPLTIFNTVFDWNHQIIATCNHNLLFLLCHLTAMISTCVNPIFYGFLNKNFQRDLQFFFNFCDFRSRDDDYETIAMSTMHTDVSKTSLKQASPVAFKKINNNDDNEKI
# How it was run: as §1
# [6] = biological target: T6, Mouse urotensin (mUR2) (Mus musculus, UniProt Q8VIH9); assay: Radioligand binding, mouse urotensin mUR2 membranes, FlashPlate, [125I]-Urotensin II; settings: compound at 10 μM; [125I]-Urotensin II, FlashPlate
# T6 construct: purchased Perkin Elmer Biosignal
# T6 sequence (Q8VIH9 1-385): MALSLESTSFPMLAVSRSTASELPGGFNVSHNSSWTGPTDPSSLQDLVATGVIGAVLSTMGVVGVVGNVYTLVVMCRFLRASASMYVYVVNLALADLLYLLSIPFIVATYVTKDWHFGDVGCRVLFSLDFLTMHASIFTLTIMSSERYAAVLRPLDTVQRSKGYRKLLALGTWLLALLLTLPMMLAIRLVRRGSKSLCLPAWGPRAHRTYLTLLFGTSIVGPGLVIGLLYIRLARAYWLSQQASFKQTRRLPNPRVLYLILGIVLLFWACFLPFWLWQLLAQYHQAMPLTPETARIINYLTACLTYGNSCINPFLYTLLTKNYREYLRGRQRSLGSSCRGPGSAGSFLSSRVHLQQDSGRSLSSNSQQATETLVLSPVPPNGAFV
# How it was run: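 Cloned mouse urotensin (mUR2) receptor membranes from Perkin Elmer Biosignal were immobilized in FlashPlate microplates using a proprietary coating. Each well got 19.5 μl buffer, then 0.5 μl of DMSO, reference ligand, or compound. Adding 5 μl of [125I]-Urotensin II, diluted to 5× final concentration in binding buffer, started binding. Plates were sealed with TopSeal-A and incubated 1 hour at room temperature in the dark. Wells were counted for 30 seconds each on a TopCount after a 60-second delay, and percentage inhibition was calculated.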
# [7] = biological target: T7, Human Melanocortin (MC4) (Homo sapiens, UniProt P32245); assay: Radioligand binding, human melanocortin MC4 membranes, FlashPlate, [125I]-NDP-αMSH; settings: compound at 10 μM; [125I]-NDP-αMSH, FlashPlate
# T7 construct: purchased Perkin Elmer Biosignal
# How it was run: as §1
# [8] = biological target: T8, Human Melanocortin (MC3) (Homo sapiens, UniProt P41968); assay: Radioligand binding, human melanocortin MC3 membranes, FlashPlate, [125I]-NDP-αMSH; settings: compound at 10 μM; [125I]-NDP-αMSH, FlashPlate
# T8 construct: purchased Perkin Elmer Biosignal
# How it was run: as §1
# [9] = biological target: T9, Human neurokinin (NK1) (Homo sapiens, UniProt P25103); assay: Radioligand binding, human neurokinin NK1 membranes, filtration, [125I]-Substance P; settings: compound at 10 μM; [125I]-Substance P, filtration
# T9 construct: purchased Perkin Elmer Biosignal
# How it was run: (§2)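 Percent inhibition of radioligand binding measured on recombinant human membranes: NK1 with [125I]-Substance P, KOP with [3H]-Diprenorphine. Incubation 1 h at room temperature, then harvest onto 0.3% PEI-soaked filters, cold Tris-HCl pH 7.4 washes and scintillation counting; non-specific binding from reference ligand wells.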
# [10] = biological target: T10, Human κ-Opioid (KOP) (Homo sapiens, UniProt P41145); assay: Radioligand binding, human κ-opioid (KOP) membranes, filtration, [3H]-Diprenorphine; settings: compound at 10 μM; [3H]-Diprenorphine, filtration
# T10 construct: purchased Perkin Elmer Biosignal
# How it was run: as §2
# [11] = biological target: T11, Human melanocortin (MC5) (Homo sapiens, UniProt P33032); assay: Radioligand binding, human melanocortin MC5 membranes, FlashPlate, [125I]-NDP-αMSH; settings: compound at 10 μM; [125I]-NDP-αMSH, FlashPlate
# T11 construct: purchased Perkin Elmer Biosignal
# How it was run: as §1
# T7 sequence (P32245 whole entry): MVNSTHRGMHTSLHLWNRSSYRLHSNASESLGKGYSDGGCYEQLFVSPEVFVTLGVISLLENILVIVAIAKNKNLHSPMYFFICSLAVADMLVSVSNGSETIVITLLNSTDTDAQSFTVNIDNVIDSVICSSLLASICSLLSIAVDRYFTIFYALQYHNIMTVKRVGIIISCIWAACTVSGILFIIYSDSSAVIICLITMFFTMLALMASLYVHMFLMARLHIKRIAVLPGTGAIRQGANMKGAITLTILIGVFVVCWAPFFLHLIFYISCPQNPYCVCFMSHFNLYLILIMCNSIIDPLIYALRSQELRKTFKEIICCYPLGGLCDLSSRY
# T9 sequence (P25103 whole entry): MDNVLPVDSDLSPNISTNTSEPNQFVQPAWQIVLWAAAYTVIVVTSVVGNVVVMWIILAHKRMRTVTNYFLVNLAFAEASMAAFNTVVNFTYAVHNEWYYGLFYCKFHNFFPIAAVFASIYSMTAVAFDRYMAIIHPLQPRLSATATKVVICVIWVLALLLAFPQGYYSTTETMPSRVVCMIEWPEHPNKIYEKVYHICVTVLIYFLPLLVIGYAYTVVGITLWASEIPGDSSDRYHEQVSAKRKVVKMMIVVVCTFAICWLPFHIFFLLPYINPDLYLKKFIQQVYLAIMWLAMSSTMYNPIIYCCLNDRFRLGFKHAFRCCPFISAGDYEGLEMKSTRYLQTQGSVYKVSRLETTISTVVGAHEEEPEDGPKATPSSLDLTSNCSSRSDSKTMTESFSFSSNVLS
# T10 sequence (P41145 whole entry): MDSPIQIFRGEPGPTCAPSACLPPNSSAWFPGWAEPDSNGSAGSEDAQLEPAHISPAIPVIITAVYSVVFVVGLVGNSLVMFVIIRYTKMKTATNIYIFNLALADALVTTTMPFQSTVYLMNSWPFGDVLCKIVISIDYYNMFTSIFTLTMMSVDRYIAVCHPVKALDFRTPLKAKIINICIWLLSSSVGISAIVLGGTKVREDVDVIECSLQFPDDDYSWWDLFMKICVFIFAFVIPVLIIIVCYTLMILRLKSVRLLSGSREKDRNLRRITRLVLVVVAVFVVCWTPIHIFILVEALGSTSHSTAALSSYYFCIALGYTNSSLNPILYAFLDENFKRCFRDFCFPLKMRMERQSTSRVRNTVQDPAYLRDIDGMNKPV
# T3 sequence (P35372 whole entry): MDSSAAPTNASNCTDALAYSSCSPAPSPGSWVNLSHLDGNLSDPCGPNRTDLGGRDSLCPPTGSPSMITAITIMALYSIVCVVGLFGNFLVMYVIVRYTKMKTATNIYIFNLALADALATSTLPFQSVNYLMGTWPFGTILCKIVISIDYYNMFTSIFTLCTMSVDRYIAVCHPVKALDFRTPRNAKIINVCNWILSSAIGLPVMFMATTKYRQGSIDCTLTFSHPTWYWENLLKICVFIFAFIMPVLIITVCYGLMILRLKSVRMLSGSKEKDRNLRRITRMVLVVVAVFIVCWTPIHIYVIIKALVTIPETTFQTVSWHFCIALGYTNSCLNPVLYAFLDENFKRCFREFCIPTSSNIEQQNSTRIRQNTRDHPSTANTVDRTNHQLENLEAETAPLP
# T2 sequence (Q99705 whole entry): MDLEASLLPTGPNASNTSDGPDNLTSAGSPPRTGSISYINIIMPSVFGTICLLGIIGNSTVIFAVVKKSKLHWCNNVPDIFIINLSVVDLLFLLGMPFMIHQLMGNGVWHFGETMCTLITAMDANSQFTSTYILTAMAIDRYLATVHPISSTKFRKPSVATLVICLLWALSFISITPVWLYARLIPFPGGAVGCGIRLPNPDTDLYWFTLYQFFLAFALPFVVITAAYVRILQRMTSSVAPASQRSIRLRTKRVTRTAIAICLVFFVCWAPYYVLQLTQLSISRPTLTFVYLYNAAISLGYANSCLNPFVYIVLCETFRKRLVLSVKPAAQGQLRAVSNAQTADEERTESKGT
# T4 sequence (P41143 whole entry): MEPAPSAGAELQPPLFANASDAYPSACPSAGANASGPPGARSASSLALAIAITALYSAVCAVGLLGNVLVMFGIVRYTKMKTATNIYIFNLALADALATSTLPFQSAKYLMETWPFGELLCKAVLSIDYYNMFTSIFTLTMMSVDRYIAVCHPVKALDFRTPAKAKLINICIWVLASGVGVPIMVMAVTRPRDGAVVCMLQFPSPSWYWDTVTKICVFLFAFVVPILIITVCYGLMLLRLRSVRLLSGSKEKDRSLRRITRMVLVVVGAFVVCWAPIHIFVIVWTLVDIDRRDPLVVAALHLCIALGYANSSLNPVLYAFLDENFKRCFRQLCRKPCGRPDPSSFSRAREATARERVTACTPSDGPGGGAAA
# T8 sequence (P41968 whole entry): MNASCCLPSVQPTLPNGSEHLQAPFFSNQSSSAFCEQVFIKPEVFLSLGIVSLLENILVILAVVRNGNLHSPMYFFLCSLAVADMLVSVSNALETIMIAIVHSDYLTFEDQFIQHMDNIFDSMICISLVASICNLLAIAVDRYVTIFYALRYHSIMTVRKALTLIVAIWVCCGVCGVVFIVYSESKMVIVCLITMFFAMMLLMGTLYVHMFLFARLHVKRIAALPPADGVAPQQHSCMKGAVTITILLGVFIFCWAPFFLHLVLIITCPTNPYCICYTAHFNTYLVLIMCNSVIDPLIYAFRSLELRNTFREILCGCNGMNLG
# T11 sequence (P33032 whole entry): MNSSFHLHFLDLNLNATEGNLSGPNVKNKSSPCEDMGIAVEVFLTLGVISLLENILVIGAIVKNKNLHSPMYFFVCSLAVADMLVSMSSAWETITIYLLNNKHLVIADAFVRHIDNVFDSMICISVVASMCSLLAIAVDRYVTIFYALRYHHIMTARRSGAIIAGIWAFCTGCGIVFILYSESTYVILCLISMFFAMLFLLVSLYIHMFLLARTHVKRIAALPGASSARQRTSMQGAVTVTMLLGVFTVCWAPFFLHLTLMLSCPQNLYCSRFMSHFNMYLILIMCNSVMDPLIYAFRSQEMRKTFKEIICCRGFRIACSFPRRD
# T1 sequence (P41146 whole entry): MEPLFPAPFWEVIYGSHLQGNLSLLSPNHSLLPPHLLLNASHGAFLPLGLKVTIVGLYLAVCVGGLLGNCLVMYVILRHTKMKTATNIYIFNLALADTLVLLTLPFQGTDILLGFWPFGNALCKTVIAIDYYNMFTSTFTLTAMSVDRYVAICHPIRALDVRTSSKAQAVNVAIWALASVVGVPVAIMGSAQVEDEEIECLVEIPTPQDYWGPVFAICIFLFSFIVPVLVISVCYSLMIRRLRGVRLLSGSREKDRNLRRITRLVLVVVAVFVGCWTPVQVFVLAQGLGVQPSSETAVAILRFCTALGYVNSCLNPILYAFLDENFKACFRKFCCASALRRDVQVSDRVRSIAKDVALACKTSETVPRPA
Structure (SMILES),A10: inhibition of radioligand binding [1],A6: inhibition of radioligand binding [2],A7: inhibition of radioligand binding [3],A1: inhibition of radioligand binding [4],A9: inhibition of radioligand binding [5],A11: inhibition of radioligand binding [6],A4: inhibition of radioligand binding [7],A3: inhibition of radioligand binding [8],A8: inhibition of radioligand binding [9],A2: inhibition of radioligand binding [10],A5: inhibition of radioligand binding [11]
COCC1OC(OCc2ccc3ccccc3c2)C(NC(=O)CCN)C(OCc2ccc(Cl)cc2)C1O (stereo not drawn) [compound 237],− (“−” indicates less than 50% inhibition at 10 μM),− (“−” indicates less than 50% inhibition at 10 μM),− (“−” indicates less than 50% inhibition at 10 μM),− (“−” indicates less than 50% inhibition at 10 μM),− (“−” indicates less than 50% inhibition at 10 μM),− (“−” indicates less than 50% inhibition at 10 μM),− (“−” indicates less than 50% inhibition at 10 μM),− (“−” indicates less than 50% inhibition at 10 μM),+ (“+” indicates greater than 50% inhibition at 10 μM),− (“−” indicates less than 50% inhibition at 10 μM),+ (“+” indicates greater than 50% inhibition at 10 μM)
COCC1OC(OCc2ccc3ccccc3c2)C(NC(=O)CCNC(=N)N)C(OCc2ccc(Cl)cc2)C1O (stereo not drawn) [compound 238],+ (“+” indicates greater than 50% inhibition at 10 μM),+ (“+” indicates greater than 50% inhibition at 10 μM),− (“−” indicates less than 50% inhibition at 10 μM),+ (“+” indicates greater than 50% inhibition at 10 μM),− (“−” indicates less than 50% inhibition at 10 μM),− (“−” indicates less than 50% inhibition at 10 μM),+ (“+” indicates greater than 50% inhibition at 10 μM),+ (“+” indicates greater than 50% inhibition at 10 μM),+ (“+” indicates greater than 50% inhibition at 10 μM),− (“−” indicates less than 50% inhibition at 10 μM),+ (“+” indicates greater than 50% inhibition at 10 μM)
COCC1OC(OCc2ccc3ccccc3c2)C(NC(=O)CCCN)C(OCc2ccc(Cl)cc2)C1O (stereo not drawn) [compound 239],− (“−” indicates less than 50% inhibition at 10 μM),− (“−” indicates less than 50% inhibition at 10 μM),− (“−” indicates less than 50% inhibition at 10 μM),− (“−” indicates less than 50% inhibition at 10 μM),− (“−” indicates less than 50% inhibition at 10 μM),− (“−” indicates less than 50% inhibition at 10 μM),− (“−” indicates less than 50% inhibition at 10 μM),− (“−” indicates less than 50% inhibition at 10 μM),+ (“+” indicates greater than 50% inhibition at 10 μM),− (“−” indicates less than 50% inhibition at 10 μM),+ (“+” indicates greater than 50% inhibition at 10 μM)
COCC1OC(OCc2ccc3ccccc3c2)C(NC(=O)CCCNC(=N)N)C(OCc2ccc(Cl)cc2)C1O (stereo not drawn) [compound 240],+ (“+” indicates greater than 50% inhibition at 10 μM),+ (“+” indicates greater than 50% inhibition at 10 μM),+ (“+” indicates greater than 50% inhibition at 10 μM),− (“−” indicates less than 50% inhibition at 10 μM),− (“−” indicates less than 50% inhibition at 10 μM),− (“−” indicates less than 50% inhibition at 10 μM),+ (“+” indicates greater than 50% inhibition at 10 μM),+ (“+” indicates greater than 50% inhibition at 10 μM),+ (“+” indicates greater than 50% inhibition at 10 μM),+ (“+” indicates greater than 50% inhibition at 10 μM),+ (“+” indicates greater than 50% inhibition at 10 μM)
COCC1OC(OCc2ccc3ccccc3c2)C(NC(=O)CN)C(OCc2ccc(-c3ccccc3)cc2)C1O (stereo not drawn) [compound 241],− (“−” indicates less than 50% inhibition at 10 μM),− (“−” indicates less than 50% inhibition at 10 μM),− (“−” indicates less than 50% inhibition at 10 μM),− (“−” indicates less than 50% inhibition at 10 μM),− (“−” indicates less than 50% inhibition at 10 μM),− (“−” indicates less than 50% inhibition at 10 μM),+ (“+” indicates greater than 50% inhibition at 10 μM),− (“−” indicates less than 50% inhibition at 10 μM),+ (“+” indicates greater than 50% inhibition at 10 μM),− (“−” indicates less than 50% inhibition at 10 μM),+ (“+” indicates greater than 50% inhibition at 10 μM)
COCC1OC(OCc2ccc3ccccc3c2)C(NC(=O)CNC(=N)N)C(OCc2ccc(-c3ccccc3)cc2)C1O (stereo not drawn) [compound 242],− (“−” indicates less than 50% inhibition at 10 μM),− (“−” indicates less than 50% inhibition at 10 μM),− (“−” indicates less than 50% inhibition at 10 μM),− (“−” indicates less than 50% inhibition at 10 μM),− (“−” indicates less than 50% inhibition at 10 μM),− (“−” indicates less than 50% inhibition at 10 μM),+ (“+” indicates greater than 50% inhibition at 10 μM),+ (“+” indicates greater than 50% inhibition at 10 μM),+ (“+” indicates greater than 50% inhibition at 10 μM),− (“−” indicates less than 50% inhibition at 10 μM),+ (“+” indicates greater than 50% inhibition at 10 μM)

# Source: patent US20080009418A1, “Selective Inhibitors” (Alchemia LTD., priority 2004, published 2008)
